The source of these data is patent US20250340571A1, “COMPOSITIONS USEFUL FOR MODULATING SPLICING” (Skyhawk Therapeutics, Inc., priority 2022, published 2025).

In one experiment the test system is total ATXN3 protein. As to the kind of experiment: ATXN3 total protein assay (MSD). Type of experiment: cell-based, human. The conditions noted are these: SK-N-MC cells, 48 h incubation. As to the method: Human neuroblastoma SK-N-MC cells were seeded at 10,000 cells/well in 384 well plates one day prior to compound treatment. The concentrations of compounds were tested at appropriate doses ranging from 30 μM to 0.6 nM. After incubation for 48 hours, the cells were lysed with 25 μL of lysis buffer containing protease inhibitors, and total ATXN3 protein levels were assessed by Mesoscale Discovery (MSD) assay developed with one pair of anti-ATXN3 antibodies. The capture and detect antibodies were raised in mouse and rabbit respectively. Anti-rabbit MSD-ST antibody was used for secondary antibody.
ATXN3 recombinant protein was used for standards. The readouts were captured with 35 μL of MSD read buffer and multi-array 384-well high binding plates.

The subject of experiment [1] is ATXN3 pre-mRNA (transcripts containing exon 4). As to the kind of experiment: ATXN3 quantitative splicing assay (qPCR, E4E5 transcripts containing exon 4). The format is cell-based. The conditions noted are these: Homo sapiens; SK-N-MC cells, 24 h treatment, qPCR E4E5 primers/probe. As to the method: Human neuroblastoma SK-N-MC cells were plated in 384-well plates at 20,000 cells/well. Twenty-four hours after plating, cells were treated with compounds for 24 h at appropriate concentrations ranging from 30 μM to 0.6 nM (0.3% DMSO). Treated cells were lysed in 15 μL of lysis buffer, and cDNA was synthesized using the Fast Advanced Cells-to-Ct kit. Two μL of each cDNA was used in qPCR reactions to confirm the exon 4 skipped transcripts of ATXN3. A second set of primers/probe E4E5 was used to detect the transcripts containing exon 4. The third set of primers/probe E8E9 was used to detect total gene level of ATXN3. The qPCR reactions were prepared in 384-well plates in 10 μL volume, using TaqMan™ Fast Advanced Master Mix with primers and probes shown in the table below. Reactions were run in a Quant Studio 6 qPCR instrument with default settings.
The primers and probes are listed below in Table 5.
(Quantitative PCR measures a nucleic acid by following its amplification.)

Broadly, the IC50 is the concentration at which inhibition is half-maximal. Read a low IC50 as greater potency. `C#Cc1c(C[C@@H](N)[C@H](C)F)sc2c(NCc3ccco3)snc12` [Compound 25, 7-[(2R,3S)-2-amino-3-fluorobutyl]-8-ethynyl-4-(furfurylamino)-3,6-dithia-2-azabicyclo[3.3.0]octa-1,4,7-triene]: the IC50 (in the experiment with total ATXN3 protein; in experiment [1]) was 101 to 500 nM in each case.

`C#Cc1c(C[C@@H](N)COC)sc2c(NCc3ccccc3)snc12` [Compound 30, 7-[(R)-2-amino-3-methoxypropyl]-4-benzylamino-8-ethynyl-3,6-dithia-2-azabicyclo[3.3.0]octa-1,4,7-triene]: the IC50 (in the experiment with total ATXN3 protein; in experiment [1]) was 10000 to 40000 nM throughout.

Take `C#Cc1c(C[C@@H](N)CF)sc2c(NCc3cccs3)snc12` [Compound 17, 7-[(R)-2-amino-3-fluoropropyl]-8-ethynyl-4-thenylamino-3,6-dithia-2-azabicyclo[3.3.0]octa-1,4,7-triene]: the 50% inhibitory concentration (IC50) in the experiment on total ATXN3 protein lay within 501 to 5000 nM; in experiment [1] it was 101 to 500 nM.

For the compound `C[C@H](N)Cc1sc2c(NCc3cccs3)snc2c1-c1ncco1` [Compound 40, 7-[(S)-2-aminopropyl]-8-(1,3-oxazol-2-yl)-4-thenylamino-3,6-dithia-2-azabicyclo[3.3.0]octa-1,4,7-triene], the IC50 (in the experiment with total ATXN3 protein; in experiment [1]) was 501 to 5000 nM in each case.

In the case of `C[C@H](N)Cc1sc2c(NCc3cccs3)snc2c1-n1cccn1` [Compound 3, 7-[(S)-2-aminopropyl]-8-(1-pyrazolyl)-4-thenylamino-3,6-dithia-2-azabicyclo[3.3.0]octa-1,4,7-triene], the half-inhibitory concentration (IC50) (in the experiment on total ATXN3 protein; in experiment [1]) was 10000 to 40000 nM throughout.

For the compound `C[C@H](N)Cc1sc2c(NCc3cccs3)snc2c1-c1ccccn1` [Compound 7, 5-[(2S)-2-aminopropyl]-6-(pyridin-2-yl)-N-(thiophen-2-ylmethyl)thieno[3,2-c][1,2]thiazol-3-amine], the IC50 (with total ATXN3 protein; in experiment [1]) was 10000 to 40000 nM each time.

As to `C[C@H](N)Cc1sc2c(NCc3cccs3)snc2c1-c1cccnc1` [Compound 6, 7-[(S)-2-aminopropyl]-8-(3-pyridyl)-4-thenylamino-3,6-dithia-2-azabicyclo[3.3.0]octa-1,4,7-triene], the 50% inhibitory concentration (IC50) (in the experiment with total ATXN3 protein; in experiment [1]) was 10000 to 40000 nM each time.

For the compound `C#Cc1c(C[C@@H](N)COC2CC2)sc2c(NCc3cccs3)snc12` [Compound 34, 7-[(R)-2-amino-3-cyclopropoxypropyl]-8-ethynyl-4-thenylamino-3,6-dithia-2-azabicyclo[3.3.0]octa-1,4,7-triene], the IC50 (in the experiment on total ATXN3 protein; in experiment [1]) was 501 to 5000 nM each time.

`C#Cc1c(C[C@H](C)N)sc2c(NCc3ccco3)snc12` [Compound 11, 7-[(S)-2-aminopropyl]-8-ethynyl-4-(furfurylamino)-3,6-dithia-2-azabicyclo[3.3.0]octa-1,4,7-triene]: the IC50 (with total ATXN3 protein; in experiment [1]) was 0.01 to 100 nM in each case.

For the compound `C#Cc1c(C[C@@H](N)[C@H](C)F)sc2c(NCc3cccs3)snc12` [Compound 19, 5-[(2R,3S)-2-amino-3-fluorobutyl]-6-ethynyl-N-(thiophen-2-ylmethyl)thieno[3,2-c][1,2]thiazol-3-amine], the IC50 (in the experiment with total ATXN3 protein; in experiment [1]) was 101 to 500 nM in each case.

`C[C@H](F)[C@H](N)Cc1sc2c(NCc3cccs3)snc2c1-c1ncco1` [Compound 41, 7-[(2R,3S)-2-amino-3-fluorobutyl]-8-(1,3-oxazol-2-yl)-4-thenylamino-3,6-dithia-2-azabicyclo[3.3.0]octa-1,4,7-triene]: the 50% inhibitory concentration (IC50) (with total ATXN3 protein; in experiment [1]) was 501 to 5000 nM in each case.

For `C#Cc1c(C[C@@H](N)[C@H](C)F)sc2c(NCc3nccs3)snc12` [Compound 22, 7-[(2R,3S)-2-amino-3-fluorobutyl]-8-ethynyl-4-{[(1,3-thiazol-2-yl)methyl]amino}-3,6-dithia-2-azabicyclo[3.3.0]octa-1,4,7-triene], the IC50 with total ATXN3 protein was in the range of 0.01 to 100 nM; in experiment [1] it was 101 to 500 nM.

With `C#Cc1c(C[C@@H](N)CO)sc2c(NCc3ccco3)snc12` [Compound 13, (R)-2-amino-3-{8-ethynyl-4-(furfurylamino)-3,6-dithia-2-azabicyclo[3.3.0]octa-1,4,7-trien-7-yl}-1-propanol], the IC50 (in the experiment on total ATXN3 protein; in experiment [1]) was 0.01 to 100 nM throughout.

Turning to `C#Cc1c(C[C@@H](N)CO)sc2c(NCc3cccs3)snc12` [Compound 16, (R)-2-amino-3-(8-ethynyl-4-thenylamino-3,6-dithia-2-azabicyclo[3.3.0]octa-1,4,7-trien-7-yl)-1-propanol], the IC50 (in the experiment with total ATXN3 protein; in experiment [1]) was 0.01 to 100 nM each time.

As to `C[C@H](N)Cc1sc2c(NCc3cccs3)snc2c1-c1ccncc1` [Compound 5, 7-[(S)-2-aminopropyl]-8-(4-pyridyl)-4-thenylamino-3,6-dithia-2-azabicyclo[3.3.0]octa-1,4,7-triene], the IC50 (in the experiment with total ATXN3 protein; in experiment [1]) was 10000 to 40000 nM each time.

For the compound `C#Cc1c(C[C@@H](N)CC2CC2)sc2c(NCc3cccs3)snc12` [Compound 33, 7-[(S)-2-amino-3-cyclopropylpropyl]-8-ethynyl-4-thenylamino-3,6-dithia-2-azabicyclo[3.3.0]octa-1,4,7-triene], the IC50 (with total ATXN3 protein; in experiment [1]) was 501 to 5000 nM each time.

For `C[C@H](N)Cc1sc2c(NCc3ccco3)snc2c1-c1ccncc1` [Compound 10, 7-[(S)-2-aminopropyl]-4-(furfurylamino)-8-(4-pyridyl)-3,6-dithia-2-azabicyclo[3.3.0]octa-1,4,7-triene], the IC50 (in the experiment with total ATXN3 protein; in experiment [1]) was 10000 to 40000 nM throughout.

For the compound `C[C@H](N)Cc1sc2c(NCc3cccs3)snc2c1-n1ccnc1` [Compound 8, 5-[(2S)-2-aminopropyl]-6-(imidazol-1-yl)-N-(thiophen-2-ylmethyl)thieno[3,2-c][1,2]thiazol-3-amine], the IC50 (in the experiment on total ATXN3 protein; in experiment [1]) was 10000 to 40000 nM throughout.

Turning to `C#Cc1c(C[C@@H](N)CF)sc2c(NCc3ccco3)snc12` [Compound 23, 7-[(R)-2-amino-3-fluoropropyl]-8-ethynyl-4-(furfurylamino)-3,6-dithia-2-azabicyclo[3.3.0]octa-1,4,7-triene], the IC50 with total ATXN3 protein is 501 to 5000 nM; in experiment [1], 101 to 500 nM.

Turning to `C#Cc1c(C[C@@H](N)[C@@H](C)F)sc2c(NCc3ccco3)snc12` [Compound 24, 7-[(2R,3R)-2-amino-3-fluorobutyl]-8-ethynyl-4-(furfurylamino)-3,6-dithia-2-azabicyclo[3.3.0]octa-1,4,7-triene], the figures for the IC50 (in the experiment with total ATXN3 protein; in experiment [1]) were 501 to 5000 nM and 101 to 500 nM, respectively.

On to `C#Cc1c(C(F)(F)[C@H](C)N)sc2c(NCc3cccs3)snc12` [Compound 35, 7-[(S)-2-amino-1,1-difluoropropyl]-8-ethynyl-4-thenylamino-3,6-dithia-2-azabicyclo[3.3.0]octa-1,4,7-triene], for which the IC50 (in the experiment on total ATXN3 protein; in experiment [1]) was 501 to 5000 nM in each case.

Take `C#Cc1c(C[C@@H](N)CC2CC2)sc2c(NCc3ccco3)snc12` [Compound 32, 7-[(S)-2-amino-3-cyclopropylpropyl]-8-ethynyl-4-(furfurylamino)-3,6-dithia-2-azabicyclo[3.3.0]octa-1,4,7-triene]: the IC50 (with total ATXN3 protein; in experiment [1]) was 101 to 500 nM throughout.

Consider `C#Cc1c(C[C@@H](N)COC)sc2c(NCc3cccs3)snc12` [Compound 15, 7-[(R)-2-amino-3-methoxypropyl]-8-ethynyl-4-thenylamino-3,6-dithia-2-azabicyclo[3.3.0]octa-1,4,7-triene], for which the IC50 (in the experiment on total ATXN3 protein; in experiment [1]) was 501 to 5000 nM each time.

As to `C#Cc1c(C[C@H](C)N)sc2c(NCc3cccs3)snc12` [Compound 4, 5-[(2S)-2-aminopropyl]-6-ethynyl-N-(thiophen-2-ylmethyl)thieno[3,2-c][1,2]thiazol-3-amine], the IC50 (in the experiment with total ATXN3 protein; in experiment [1]) was 101 to 500 nM throughout.

`C[C@H](N)Cc1sc2c(NCc3ccco3)snc2c1-c1cccnc1` [Compound 12, 7-[(S)-2-aminopropyl]-4-(furfurylamino)-8-(3-pyridyl)-3,6-dithia-2-azabicyclo[3.3.0]octa-1,4,7-triene]: the IC50 (in the experiment on total ATXN3 protein; in experiment [1]) was 10000 to 40000 nM each time.

Consider `C#Cc1c(C[C@@H](N)COC)sc2c(NCc3ccco3)snc12` [Compound 14, 7-[(R)-2-amino-3-methoxypropyl]-8-ethynyl-4-(furfurylamino)-3,6-dithia-2-azabicyclo[3.3.0]octa-1,4,7-triene], for which the IC50 (in the experiment on total ATXN3 protein; in experiment [1]) was 501 to 5000 nM in each case.

As for `C#Cc1c(C[C@@H](N)C(F)F)sc2c(NCc3ccco3)snc12` [Compound 37, 7-[(R)-2-amino-3,3-difluoropropyl]-8-ethynyl-4-(furfurylamino)-3,6-dithia-2-azabicyclo[3.3.0]octa-1,4,7-triene], the IC50 (in the experiment on total ATXN3 protein; in experiment [1]) was 501 to 5000 nM throughout.
